These results are taken from patent US20070179060A1, “6-(Poly-substituted aryl)-4-aminopicolinates and their use as herbicides” (priority 2006, published 2007).

The subject of one data set is Scirpus juncoides. Kind of data set: Herbicidal activity in transplanted paddy rice. It is filed as in vivo. As to conditions: paddy water application, after 3 weeks; for pest or weed control at 70 g/ha: 70 g ai/ha. The protocol: (§1) Weed seeds or nutlets of the desired test plant species were planted in puddled soil (mud) prepared by mixing a non-sterilized mineral soil (28 percent silt, 18 percent clay, and 54 percent sand, with a pH of about 7.3 to 7.8 and an organic matter content of about 1.0 percent) and water at a ratio of 100 kg of soil to 19 L of water. The prepared mud was dispensed in 250 mL aliquots into 480 mL non-perforated plastic pots with a surface area of 91.6 square centimeters leaving a headspace of 3 centimeters in each pot. […] Seedlings at the second or third leaf stage of growth were transplanted into 650 mL of mud contained in 960 mL non-perforated plastic pots with a surface area of 91.6 square centimeters 4 days prior to herbicide application. The paddy was created by filling the 3 centimeter headspace of the pots with water. When required to ensure good germination and healthy plants, a fungicide treatment and/or other chemical or physical treatment was applied. The plants were grown for 4-14 days in a greenhouse with an approximate 14 hour photoperiod which was maintained at about 29° C. during the day and 26° C. during the night. Nutrients were added as Osmocote (17:6:10, N:P:K+minor nutrients) at 2 g per pot. Water was added on a regular basis to maintain the paddy flood, and supplemental lighting was provided with overhead metal halide 1000-Watt lamps as necessary. The plants were employed for testing when they reached the second or third true leaf stage. A weighed amount, determined by the highest rate to be tested, of each test compound was placed in a 120 mL glass vial and was dissolved in 20 mL of acetone to obtain concentrated stock solutions. […] Application rates of ½×, ¼×, ⅛× and 1/16× of the high rate were obtained by injecting an appropriate amount of the stock solution into the aqueous layer of the paddy. Control plants were treated in the same manner with the solvent blank. The treated plants and control plants were placed in a greenhouse as described above and water was added as needed to maintain a paddy flood.

For the next data set, the system named is Monochoria vaginalis. Kind of data set: Herbicidal activity in transplanted paddy rice. It is filed as in vivo. As to conditions: paddy water application, after 3 weeks; for pest or weed control at 70 g/ha: 70 g ai/ha. The protocol:
as §1

The next data set relates to Cyperus difformis. The data set is described as follows: Herbicidal activity in transplanted paddy rice. Particulars: paddy water application, after 3 weeks; for pest or weed control at 70 g/ha: 70 g ai/ha. The format is in vivo. The protocol:
as §1

In data set [1] the test system is rice (Orysa sativa var. Japonica). The data set is described as follows: Herbicidal activity in transplanted paddy rice. It is filed as in vivo. Particulars: transplant rice (crop), paddy water application, after 3 weeks; for pest or weed control at 70 g/ha: 70 g ai/ha. The protocol:
as §1

Another data set has as its system Echinochloa crus-galli. Kind of data set: Herbicidal activity in transplanted paddy rice. It is filed as in vivo. As to conditions: paddy water application, after 3 weeks; for pest or weed control at 70 g/ha: 70 g ai/ha. The procedure: as §1
The subject of data set [2] is redroot pigweed (Amaranthus retroflexus). The data set is described as follows: Postemergence herbicidal activity. The format is in vivo. As to conditions: Amaranthus retroflexus, post-emergence, 336 h, post-emergent, 140 g ai/ha, after 14 days; read-out: % Control AMARE. Summed up: (§2)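 Compounds were applied postemergence by track sprayer delivering 187 L/ha, using a mixed organic/aqueous carrier containing crop oil concentrate and surfactant; solvent-blank sprays served as controls. Test plants were at the first to second true leaf stage after 7-21 days' greenhouse growth, were sub-irrigated after treatment, and were evaluated by probit analysis.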

For data set [3], the system named is velvetleaf (Abutilon theophrasti). The data set is described as follows: Postemergence herbicidal activity. It is filed as in vivo. Particulars: Abutilon theophrasti, post-emergence, 336 h, post-emergent, 140 g ai/ha, after 14 days; read-out: % Control ABUTH. Summed up:
as §2

The test system of data set [4] is lambsquarter (Chenopodium album). The data set is described as follows: Postemergence herbicidal activity. Particulars: Chenopodium album, post-emergence, 336 h, post-emergent, 140 g ai/ha, after 14 days; read-out: % Control CHEAL. The format is in vivo. A digest of the protocol: as §2
Data set [5] has as its system redroot pigweed (Amaranthus retroflexus). Kind of data set: Preemergence herbicidal activity. It is filed as in vivo. Particulars: Amaranthus retroflexus, pre-emergence, 480 h; pre-emergent, 140 g ai/ha, after 20-22 days; read-out: % Control AMARE. A digest of the protocol: (§3)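 Seeds sown in 70:30 loam (pH about 8.1, about 1.5% organic matter) and sand mix, then sprayed preemergence at 187 L/ha with a track sprayer; controls received solvent blank. Pots kept in greenhouse, about 15 h photoperiod, about 23-29° C. day and 22-28° C. night, top-irrigated.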

Data set [6] concerns velvetleaf (Abutilon theophrasti). The data set is described as follows: Preemergence herbicidal activity. The format is in vivo. As to conditions: Abutilon theophrasti, pre-emergence, 480 h; pre-emergent, 140 g ai/ha, after 20-22 days; read-out: % Control ABUTH. A digest of the protocol: as §3
Data set [7] relates to lambsquarter (Chenopodium album). The data set is described as follows: Preemergence herbicidal activity. The format is in vivo. As to conditions: Chenopodium album, pre-emergence, 480 h; pre-emergent, 140 g ai/ha, after 20-22 days; read-out: % Control CHEAL. A digest of the protocol: as §3
The mark [8] stands for this setting: Schoenoplectiella juncoides, 504 h, read-out: % Control SCPJU.
Where [9] appears, read: Pontederia vaginalis, 504 h, read-out: % Control MOOVA.
[10] abbreviates: Cyperus difformis, 504 h, read-out: % Control CYPDI.
The mark [11] stands for this setting: Echinochloa crus-galli, 504 h, read-out: % Control ECHCG.

By melting point is commonly meant the temperature, or range, at which the solid turns liquid. Compound `COC(=O)c1nc(-c2ccc(Cl)c(C(F)F)c2F)cc(N)c1Cl` [Compound 4, 4-Amino-3-chloro-6-(4-chloro-2-fluoro-3-difluoromethylphenyl)pyridine-2-carboxylic acid methyl ester] came in with a melting point of 145 to 146 °C. For the same compound, the pest or weed control at 17.5 g/ha in the data set on Scirpus juncoides (Schoenoplectiella juncoides, 504 h, 17.5 g ai/ha, read-out: % Control SCPJU) came out at 70%. Moreover, the pest or weed control at 17.5 g/ha in the data set with Monochoria vaginalis (Pontederia vaginalis, 504 h, 17.5 g ai/ha, read-out: % Control MOOVA) came out at 100%. Moreover, in the data set on Cyperus difformis (Cyperus difformis, 504 h, 17.5 g ai/ha, read-out: % Control CYPDI), the pest or weed control at 17.5 g/ha was 95%. The pest or weed control at 17.5 g/ha in data set [1] (Oryza sativa, 504 h, 17.5 g ai/ha) worked out at 0%. The pest or weed control at 17.5 g/ha with Echinochloa crus-galli (Echinochloa crus-galli, 504 h, 17.5 g ai/ha, read-out: % Control ECHCG) turned out to be 0%. The pest or weed control at 140 g/ha in data set [2] is 100%. In addition, the pest or weed control at 140 g/ha in [3] came out at 100%. Besides, the pest or weed control at 140 g/ha in [4] was determined as 85%.

`COC(=O)c1nc(-c2ccc(Cl)c(CF)c2F)cc(N)c1Cl` [Compound 5, 4-Amino-3-chloro-6-(4-chloro-2-fluoro-3-fluoromethylphenyl)pyridine-2-carboxylic acid methyl ester]: the pest or weed control at 70 g/ha with Scirpus juncoides (setting [8]) came to 90%; with Monochoria vaginalis (setting [9]), 100%; in the data set with Cyperus difformis (setting [10]) it was 100%; in [1] (Oryza sativa, 504 h), 0%; in the data set on Echinochloa crus-galli (setting [11]) it was 20%. The pest or weed control at 140 g/ha was 35% in data set [2], 100% in [3] and 90% in data set [4].

Consider `CCOc1c(Cl)ccc(-c2cc(N)c(Cl)c(C(=O)OC)n2)c1Cl` [Compound 7, 4-Amino-3-chloro-6-(2,4-dichloro-3-ethoxyphenyl)pyridine-2-carboxylic acid methyl ester], for which the melting point was in the range of 132 to 133 °C. Also, in the data set with Scirpus juncoides (setting [8]), the pest or weed control at 70 g/ha was found to be 85%. Besides, the pest or weed control at 70 g/ha in the data set on Monochoria vaginalis (setting [9]) turned out to be 100%. Besides, the pest or weed control at 70 g/ha with Cyperus difformis (setting [10]) was determined as 100%. In addition, in data set [1] (Oryza sativa, 504 h), the pest or weed control at 70 g/ha was 10%. Also, the pest or weed control at 70 g/ha in the data set with Echinochloa crus-galli (setting [11]) was found to be 100%. Further, the pest or weed control at 140 g/ha in data set [2] was 90%. Further, the pest or weed control at 140 g/ha in [3] stood at 100%. Moreover, in data set [4], the pest or weed control at 140 g/ha was determined as 95%.

As for `COC(=O)c1nc(-c2ccc3c(c2F)OCO3)cc(N)c1Cl` [Compound 46, 4-Amino-3-chloro-6-(2-fluoro-3,4 methylenedioxyphenyl)pyridine-2-carboxylic acid methyl ester], the melting point is 139 to 141 °C. Further, the pest or weed control at 35 g/ha in the data set on Scirpus juncoides (Schoenoplectiella juncoides, 504 h, 35 g ai/ha, read-out: % Control SCPJU) was 100%. Also, the pest or weed control at 35 g/ha in the data set on Monochoria vaginalis (Pontederia vaginalis, 504 h, 35 g ai/ha, read-out: % Control MOOVA) was 100%. For the same compound, the pest or weed control at 35 g/ha in the data set with Cyperus difformis (Cyperus difformis, 504 h, 35 g ai/ha, read-out: % Control CYPDI) is 100%. The compound also came in with a pest or weed control at 35 g/ha in [1] (Oryza sativa, 504 h, 35 g ai/ha) of 0%. The pest or weed control at 35 g/ha in the data set on Echinochloa crus-galli (Echinochloa crus-galli, 504 h, 35 g ai/ha, read-out: % Control ECHCG) was 20%. In addition, the pest or weed control at 140 g/ha in data set [2] came to 100%. Moreover, the pest or weed control at 140 g/ha in data set [3] was 100%. The pest or weed control at 140 g/ha in data set [4] worked out at 95%.

For `CCOC(=O)c1nc(-c2ccc(Cl)c(OC)c2F)cc(N)c1Cl` [Compound 86, 4-amino-3-chloro-6-(4-chloro-2-fluoro-3-methoxyphenyl)-pyridine-2-carboxylic acid, ethyl ester], the pest or weed control at 70 g/ha in the data set on Scirpus juncoides (setting [8]) was 95%; in the data set on Monochoria vaginalis (setting [9]), 100%; with Cyperus difformis (setting [10]), 100%; in [1] (Oryza sativa, 504 h) it was 10%; in the data set with Echinochloa crus-galli (setting [11]), 25%. Moreover, the pest or weed control at 140 g/ha in data set [2], in data set [3] and in [4] was 100% in each case.

As for `CCCCOC(=O)c1nc(-c2c(F)cc(Cl)c(OC)c2F)cc(N)c1Cl` [Compound 88, 4-Amino-3-chloro-6-(4-chloro-2,6-difluoro-3-methoxyphenyl)pyridine-2-carboxylic acid, butyl ester], the pest or weed control at 70 g/ha in the data set on Scirpus juncoides (setting [8]) was 100%; with Monochoria vaginalis (setting [9]), 100%; with Cyperus difformis (setting [10]) it was 100%; in data set [1] (Oryza sativa, 504 h) it was 10%; in the data set with Echinochloa crus-galli (setting [11]), 100%.

As to `CCCCOC(=O)c1nc(-c2ccc(Cl)c(OC)c2Cl)cc(N)c1Cl` [Compound 89, 4-Amino-3-chloro-6-(2,4-dichloro-3-methoxyphenyl)pyridine-2-carboxylic acid, butyl ester], the pest or weed control at 70 g/ha in the data set with Scirpus juncoides (setting [8]) amounted to 90%; in the data set on Monochoria vaginalis (setting [9]), 100%; in the data set on Cyperus difformis (setting [10]), 100%; in [1] (Oryza sativa, 504 h) it was 0%; in the data set with Echinochloa crus-galli (setting [11]) it was 85%.

For `CC(F)c1c(Cl)ccc(-c2cc(N)cc(C(=O)O)n2)c1Cl` (stereo not shown) [Compound 125, 4-Amino-6-[2,4 dichloro-3-(1-fluoroethyl)phenyl]pyridine-2-carboxylic acid], the melting point is 169 to 170 °C (dec.). Further, the pest or weed control at 70 g/ha with Scirpus juncoides (setting [8]) turned out to be 100%. Moreover, the pest or weed control at 70 g/ha in the data set with Monochoria vaginalis (setting [9]) stood at 100%. Also, in the data set with Cyperus difformis (setting [10]), the pest or weed control at 70 g/ha was 100%. For the same compound, the pest or weed control at 70 g/ha in [1] (Oryza sativa, 504 h) is 5%. Moreover, the pest or weed control at 70 g/ha with Echinochloa crus-galli (setting [11]) turned out to be 100%. For the same compound, in [5], the pest or weed control at 140 g/ha was 100%. Also, the pest or weed control at 140 g/ha in data set [6] was found to be 100%. The pest or weed control at 140 g/ha in data set [7] came out at 100%.

Regarding `CCN(CC)CC.COc1c(Cl)ccc(-c2cc(N)c(Cl)c(C(=O)O)n2)c1Cl` [Compound 136, 4-Amino-3-chloro-6-(2,4 dichloro-3-methoxyphenyl)pyridine-2-carboxylic acid, triethyl amine salt], the “% Control SCPJU” value in the data set with Scirpus juncoides (35 g ai/ha) was determined as 80%. Further, the “% Control MOOVA” value in the data set with Monochoria vaginalis (35 g ai/ha) came to 100%. In the data set on Cyperus difformis (35 g ai/ha), the “% Control CYPDI” value is listed as 100%. Further, the “% Control ORYSA” value in data set [1] (35 g ai/ha) was determined as 0%. Moreover, in the data set on Echinochloa crus-galli (35 g ai/ha), the “% Control ECHCG” value worked out at 15%.
